The nature of one series: circular dichroism. Particulars: phosphate buffer (PB); pH 7.2; 20 °C; 10-50 uM.
The next series concerns HCT116 p53^+/+ cells. As to the kind of experiment: Cell viability assay (CCK-8). It is filed as cell-based, human. Particulars: 72 h. As for the experimental part: (§1) The human colon carcinoma cell line HCT116 p53^+/+ was obtained from the Cell Bank of the Chinese Academy of Sciences (Shanghai, China). HCT116 p53^-/- cells were generously provided by Prof. Vogelstein of Johns Hopkins University. Both cell lines were cultured in McCoy's 5A medium (Gibco, USA) containing 10% FBS, 100 units/ml penicillin, and 100 μg/ml streptomycin at 37 °C in a humidified incubator containing 5% CO2. Cell viability was measured using a Cell Counting Kit-8 (CCK-8) (Dojindo, Kumamoto, Japan) according to the manufacturer's instructions. In brief, the cells (5 × 10^3 cells/well in […] medium) were cultured for 24 h in 96-well microplates in a humidified 5% CO2 incubator at 37 °C and then treated with varying concentrations of compounds or 0.1% DMSO vehicle control.

Another series has as its system HCT116 p53^-/- cells. Put plainly: Cell viability assay (CCK-8). It is filed as cell-based, human. Particulars: 72 h. As for the experimental part:
as §1

A short description of series [1]: α-Helicity by CD spectroscopy. It is filed as physicochemical. To be noted: PB pH 7.2, 10-50 µM peptide, 20°C, calculated from [θ]222. The protocol: Peptides were dissolved in PB (pH = 7.2) to concentrations ranging from 10 to 50 µM. CD spectra were obtained on a Jasco J-715 spectropolarimeter at 20°C. The spectra were collected using a 0.1 cm path length quartz cuvette with the following measurement parameters: wavelength, 185-255 nm; step resolution, 0.1 nm; speed, 20 nm/min; accumulations, 6; bandwidth, 1 nm. The helical content of each peptide was calculated as reported previously.

Positions of bridges follow the written chain, without caps; N, C: chain ends. Non-standard residues stand in square brackets, D forms with d. Residues, ends and D or L forms follow the SMILES beside them. Hyp = O=C(O)[C@@H]1C[C@@H](O)CN1; R8 = C=CCCCCCC[C@@](C)(N)C(=O)O; hLeu = CC(C)CC[C@H](N)C(=O)O; S5 = C=CCCC[C@](C)(N)C(=O)O; PEG3 = NCCOCCOCCOCCC(=O)O; PEG2 = NCCOCCOCCC(=O)O

A word on the IC50: it is the concentration needed to halve the response being measured. High values mean weaker potency in that assay, low ones greater potency in that assay.

`CC(=O)N[C@H](C(=O)N[C@@H](CO)C(=O)N[C@@H](Cc1ccccc1)C(=O)N[C@@]1(C)CCCC=CCCC[C@@](C)(C(=O)N[C@@H](CC(C)C)C(=O)N[C@@H](CC(C)C)C(=O)N[C@@H](CO)C(=O)NCCOCCOCCOCCC(=O)N[C@@H](CC(C)C)C(=O)N[C@@H](C)C(=O)N2C[C@H](O)C[C@H]2C(=O)N[C@@H](Cc2ccc(O)cc2)C(=O)N[C@@H](CCC(C)C)C(=O)N2CCC[C@H]2C(N)=O)NC(=O)[C@H](Cc2c[nH]c3ccccc23)NC(=O)[C@H](Cc2ccc(O)cc2)NC(=O)[C@H](CCC(=O)O)NC1=O)[C@@H](C)O` [SPMI-HIF1-3] (Ac-TSF[S5]EYW[S5]LLS[PEG3]LA[Hyp]Y[hLeu]P-NH2; staple 4-8): the helicity in the series “circular dichroism” worked out at 27%. Further, the IC50 in the series on HCT116 p53^+/+ cells was 57.7 µM; in the series with HCT116 p53^-/- cells it was > 100 µM. Further, the “α-helicity (%)” value in series [1] is listed as 27%.

Consider `CC(=O)N[C@H](C(=O)N[C@@H](CO)C(=O)N[C@@H](Cc1ccccc1)C(=O)N[C@]1(C)CCCCCCC=CCCC[C@@](C)(C(=O)NCCOCCOCCC(=O)N[C@@H](CC(C)C)C(=O)N[C@@H](C)C(=O)N2C[C@H](O)C[C@H]2C(=O)N[C@@H](Cc2ccc(O)cc2)C(=O)N[C@@H](CCC(C)C)C(=O)N2CCC[C@H]2C(N)=O)NC(=O)[C@H](CC(C)C)NC(=O)[C@H](CC(C)C)NC(=O)[C@H](C)NC(=O)[C@H](Cc2c[nH]c3ccccc23)NC(=O)[C@H](Cc2ccc(O)cc2)NC(=O)[C@H](CCC(=O)O)NC1=O)[C@@H](C)O` [SPMI-HIF2-2] (Ac-TSF[R8]EYWALL[S5][PEG2]LA[Hyp]Y[hLeu]P-NH2; staple 4-11), for which the helicity in the series “circular dichroism” stood at 37%. Further, the figures for the 50% inhibitory concentration (IC50) with HCT116 p53^+/+ cells and in the series with HCT116 p53^-/- cells were 10.8 µM and > 100 µM, respectively. Besides, the “α-helicity (%)” value in series [1] is 37%.

As to `CC(=O)N[C@H](C(=O)N[C@@H](CO)C(=O)N[C@@H](Cc1ccccc1)C(=O)N[C@]1(C)CCCCCCC=CCCC[C@@](C)(C(=O)NCCOCCOCCOCCC(=O)N[C@@H](CC(C)C)C(=O)N[C@@H](C)C(=O)N2C[C@H](O)C[C@H]2C(=O)N[C@@H](Cc2ccc(O)cc2)C(=O)N[C@@H](CCC(C)C)C(=O)N2CCC[C@H]2C(N)=O)NC(=O)[C@H](CC(C)C)NC(=O)[C@H](CC(C)C)NC(=O)[C@H](C)NC(=O)[C@H](Cc2c[nH]c3ccccc23)NC(=O)[C@H](Cc2ccc(O)cc2)NC(=O)[C@H](CCC(=O)O)NC1=O)[C@@H](C)O` [SPMI-HIF2-3] (Ac-TSF[R8]EYWALL[S5][PEG3]LA[Hyp]Y[hLeu]P-NH2; staple 4-11), the helicity in the series “circular dichroism” was 24%. Besides, the figures for the IC50 with HCT116 p53^+/+ cells and in the series with HCT116 p53^-/- cells were 15.2 µM and > 100 µM, respectively. The “α-helicity (%)” value in series [1] was 24%.
